# Target: T1, P2X7 receptor (Homo sapiens, UniProt Q99572)
# T1 construct: stably expressing the full length P2X7 receptor; expressed in transfected cells
# T1 sequence (Q99572 1-595): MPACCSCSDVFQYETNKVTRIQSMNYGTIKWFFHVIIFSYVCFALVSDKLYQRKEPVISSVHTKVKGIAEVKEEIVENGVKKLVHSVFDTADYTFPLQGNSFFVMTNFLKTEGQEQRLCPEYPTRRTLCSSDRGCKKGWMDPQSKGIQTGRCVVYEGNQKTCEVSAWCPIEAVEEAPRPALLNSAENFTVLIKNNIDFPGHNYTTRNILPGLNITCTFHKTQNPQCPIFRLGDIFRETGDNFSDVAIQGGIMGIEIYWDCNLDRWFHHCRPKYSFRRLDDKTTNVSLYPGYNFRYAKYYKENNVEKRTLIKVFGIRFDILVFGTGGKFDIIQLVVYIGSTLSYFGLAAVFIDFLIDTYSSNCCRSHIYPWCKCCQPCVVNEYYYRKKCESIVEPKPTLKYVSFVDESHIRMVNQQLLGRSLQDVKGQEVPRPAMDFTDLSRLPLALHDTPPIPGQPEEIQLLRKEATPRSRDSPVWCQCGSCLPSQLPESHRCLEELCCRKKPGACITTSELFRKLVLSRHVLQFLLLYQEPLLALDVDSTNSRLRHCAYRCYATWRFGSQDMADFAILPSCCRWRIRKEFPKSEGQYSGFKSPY
# Experiment: Ca++ flux assay (FLIPR) in P2X7-HEK-293 cell line stably expressing the full length P2X7 receptor, Bz-ATP activation
# Format: cell-based
# Conditions: P2X7-HEK-293 cells; agonist Bz-ATP; fluorescence as total area over 90 seconds; read-out: P2X7 Ca Flux hu IC50
# Procedure, shortened: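 HEK-293 cells stably expressing full-length P2X7 were loaded with Ca++-sensitive dye for 1 h, with compound added during loading. Cells were stimulated with Bz-ATP on FLIPR. Fluorescence was integrated as total area over 90 s, and IC50 was taken as 50% inhibition of the maximal Ca++ response.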
row,Structure (SMILES),IC50
1,"Cc1ccc(-c2ccccc2CSc2nnc3c(=O)n(-c4cccc(C(F)(F)F)c4C)ccn23)cc1 [Compound 7, 7-(2-methyl-3-(trifluoromethyl)phenyl)-3-((4′-methylbiphenyl-2-yl)methylthio)-[1,2,4]triazolo[4,3-a]pyrazin-8(7H)-one]",66.7 nM
2,"O=c1c2nnc(SCc3cc(Cl)cc(Cl)c3)n2ccn1-c1cccc(C(F)(F)F)c1F [Compound 58, 3-(3,5-dichlorobenzylthio)-7-(2-fluoro-3-(trifluoromethyl)phenyl)-[1,2,4]triazolo[4,3-a]pyrazin-8(7H)-one]",427 nM
3,"Cc1c(Cl)cccc1-n1ccn2c(S(=O)(=O)Cc3ccccc3C(C)(C)C)nnc2c1=O [Compound 136, 3-(2-tert-butylbenzylsulfonyl)-7-(3-chloro-2-methylphenyl)-[1,2,4]triazolo[4,3-a]pyrazin-8(7H)-one]",26.9 nM
4,"O=c1c2nnc(SCc3ccccc3)n2ccn1-c1cccc(F)c1Cl [Compound 65, 3-(benzylthio)-7-(2-chloro-3-fluorophenyl)-[1,2,4]triazolo[4,3-a]pyrazin-8(7H)-one]",189 nM
5,Cc1c(-n2ccn3c(S(=O)(=O)Cc4ccccc4-c4ccccc4)nnc3c2=O)cccc1C(F)(F)F [Compound 149],48 nM
6,"Cc1onc(-c2ccccc2)c1CS(=O)(=O)c1nnc2c(=O)n(-c3cccc(C(F)(F)F)c3C)ccn12 [Compound 160, 7-(2-methyl-3-(trifluoromethyl)phenyl)-3-((5-methyl-3-phenylisoxazol-4-yl)methylsulfonyl)-[1,2,4]triazolo[4,3-a]pyrazin-8(7H)-one]",284 nM
7,"Cc1ccc(-c2ccccc2CSc2nnc3c(=O)n(-c4cccc(C(F)(F)F)c4C)ccn23)s1 [Compound 6, 7-(2-methyl-3-(trifluoromethyl)phenyl)-3-(2-(5-methylthiophen-2-yl)benzylthio)-[1,2,4]triazolo[4,3-a]pyrazin-8(7H)-one]",37 nM
8,"Cc1c(Cl)cccc1-n1ccn2c(SCc3cccc(Cl)c3Cl)nnc2c1=O [Compound 66, 7-(3-chloro-2-methylphenyl)-3-(2,3-dichlorobenzylthio)-[1,2,4]triazolo[4,3-a]pyrazin-8(7H)-one]",324 nM
9,"Cc1c(Cl)cccc1-n1ccn2c(SCc3ccccc3N3CCOCC3)nnc2c1=O [Compound 32, 7-(3-chloro-2-methylphenyl)-3-(2-morpholinobenzylthio)-[1,2,4]triazolo[4,3-a]pyrazin-8(7H)-one]",553 nM
10,Cc1ccc(-c2ccccc2CS(=O)(=O)c2nnc3c(=O)n(-c4cccc(C(F)(F)F)c4C)ccn23)s1 [Compound 150],48.9 nM
11,"Cc1c(Cl)cccc1-n1ccn2c(SCc3ccccc3Oc3ccccc3)nnc2c1=O [Compound 30, 7-(3-chloro-2-methylphenyl)-3-(2-phenoxybenzylthio)-[1,2,4]triazolo[4,3-a]pyrazin-8(7H)-one]",67 nM
12,"Cc1c(Cl)cccc1-n1ccn2c(NCCc3ccccc3)nnc2c1=O [Compound 168, 7-(3-chloro-2-methylphenyl)-3-(phenethylamino)-[1,2,4]triazolo[4,3-a]pyrazin-8(7H)-one]",3150 nM
13,"COc1ccccc1C(=O)CSc1nnc2c(=O)n(-c3cccc(Cl)c3C)ccn12 [Compound 108, 7-(3-chloro-2-methylphenyl)-3-(2-(2-methoxyphenyl)-2-oxoethylthio)-[1,2,4]triazolo[4,3-a]pyrazin-8(7H)-one]",507 nM
14,"CCc1ccccc1CSc1nnc2c(=O)n(-c3cccc(Cl)c3C)ccn12 [Compound 35, 7-(3-chloro-2-methylphenyl)-3-(2-ethylbenzylthio)-[1,2,4]triazolo[4,3-a]pyrazin-8(7H)-one]",213 nM
15,"Cc1c(-n2ccn3c(SCc4ccccc4F)nnc3c2=O)cccc1C(F)(F)F [Compound 56, 3-(2-fluorobenzylthio)-7-(2-methyl-3-(trifluoromethyl)phenyl)-[1,2,4]triazolo[4,3-a]pyrazin-8(7H)-one]",167 nM
